“Also recorded” adds a separate entry of the source. Non-standard residues stand in square brackets, D forms with d. Residues, ends and D or L forms follow the SMILES beside them.
Columns and labels:
[1] = tested on: serum LH and testosterone; assay: Kisspeptin-10 stimulated LH and testosterone in intact male rats, icv injections; assay type: in vivo, rat; conditions: for LH secretory response to kisspeptin-10 (AUC): 1 nmol icv with 100 pmol kisspeptin-10, 120-min period after co-injection; for testosterone levels vs kisspeptin-10 alone: 60 min after combined injection with kisspeptin-10
Method: Adult male rats (BW: 280-310 g) bred in the vivarium of the University of Córdoba were used. The animals were maintained under constant conditions of light (14 h of light, from 0700 h) and temperature (22 C), and, before cannula implantation, were kept in groups of four rats per cage with free access to pelleted food and tap water. Experimental procedures were approved by the Córdoba University Ethical Committee for animal experimentation and were conducted in accordance with the European Union normative for care and use of experimental animals.
The animals were implanted with icy cannulae under light ether anaesthesia and caged individually thereafter. To allow delivery of compounds into the lateral cerebral ventricle, the cannulae were lowered to a depth of 4 mm beneath the surface of the skull; the insert point was 1 mm posterior and 1.2 mm lateral to bregma. Functional tests were conducted at least 24-48 h after cannula implantation.
Pharmacological tests in intact males involved 5 μl injections at 60 min intervals (icy) of 1 nmol doses of the peptide 234. The last injection was accompanied by the injection of an effective (but sub-maximal) dose of 100 pmol kisspeptin-10 (Phoenix Pharmaceuticals Ltd). Animals injected with vehicle (physiological saline) served as controls. Blood samples (250 μL) were taken by jugular venipuncture at 15- and 60-min following each icy injection. In addition, blood samples were taken immediately before initiation of the experiment (time: 0-min) and at 120-min after last injection (time: 240-min). Experimental procedures and kisspeptin doses were selected on the basis of previous studies (16, 34, 48). For each time-point, 10-12 samples were taken per group.
Serum LH levels were measured in a volume of 50 μl using a double-antibody method and radioimmunoassay kits supplied by the NIH (Dr. AF Parlow, NIDDK). Rat LH-I-10 was labeled with ^125I using Iodo-Gen precoated tubes, following the instructions of the manufacturer (Pierce), and hormone concentrations were expressed using reference preparation LH-RP-3 as standard. Intra- and inter-assay coefficients of variation were below 8 and 10%, respectively. The sensitivity of the assay was 5 pg/tube. In addition, serum testosterone (T) measurements were selectively conducted in blood samples taken 60-min after co-administration of kp-10 and peptide 234 (Time: 180-min). To this end, a commercial kit from MP Biomedicals was used, following the instructions of the manufacturer. The sensitivity of the assay was 0.1 ng/tube and the intra-assay coefficient of variation was 4.5%. For each hormone, all samples were measured in the same assay. Accuracy of hormone determinations was confirmed by assessment of rat serum samples of known hormone concentrations used as external controls.
Hormonal determinations were conducted in duplicate, with a minimal total number of 10 samples per group. When appropriate, in addition to individual time-point measurements, integrated LH secretory responses were calculated as the area under the curve (AUC), following the trapezoidal rule. Hormonal data are presented as mean±SEM. Results were analyzed for statistically significant differences using Student t-test or ANOVA followed by Student-Newman-Keuls multiple range test (SigmaStat 2.0). P≦0.05 was considered significant.

[2] = tested on: CHO cells stably expressing human gpr-54; assay: Cell migration (wound healing) assay in CHO cells; assay type: cell-based, Chinese hamster
Method: Human Umbilical Vein Endothelial Cells (HUVECs) isolated from neonatal umbilical cord were used as they endogenously express gpr-54, which is though to be involved in cell migration in the placenta. Chinese hamster ovary (CHO) cells which stably express the human gpr-54 receptor were used as a model cell line for wound healing assays. […] Complete media was added along with 1 nM Kisspeptin-10 for HUVECs and 100 nM Kisspeptin-10 for CHO cells, the optimal concentrations to inhibit cell migration (wound healing) in each cell type, in the presence and absence of antagonist 233, 234, 273 and 276 for HUVECs and 234 for CHOs. […] Cells were photographed on the axiovert 2000 at 20× magnification in phase contrast (Hori et al., 2001. Metastin suppresses the motility and growth of CHO cells transfected with its receptor. Biochem Biophys Res Commun 286, 958-963; Stafford et al., 2002, Identification and characterization of mouse metastasis-suppressor KiSS1 and its G-protein-coupled receptor. Cancer Res 62, 5399-5404).

[3] = Fetal weight after kisspeptin treatment (FIG. 6); assay type: in vivo
LH receptors = LH receptors (Homo sapiens, UniProt P22888); assay: Binding to LH receptors (data not shown)
Sequence of LH receptors (P22888 27-699): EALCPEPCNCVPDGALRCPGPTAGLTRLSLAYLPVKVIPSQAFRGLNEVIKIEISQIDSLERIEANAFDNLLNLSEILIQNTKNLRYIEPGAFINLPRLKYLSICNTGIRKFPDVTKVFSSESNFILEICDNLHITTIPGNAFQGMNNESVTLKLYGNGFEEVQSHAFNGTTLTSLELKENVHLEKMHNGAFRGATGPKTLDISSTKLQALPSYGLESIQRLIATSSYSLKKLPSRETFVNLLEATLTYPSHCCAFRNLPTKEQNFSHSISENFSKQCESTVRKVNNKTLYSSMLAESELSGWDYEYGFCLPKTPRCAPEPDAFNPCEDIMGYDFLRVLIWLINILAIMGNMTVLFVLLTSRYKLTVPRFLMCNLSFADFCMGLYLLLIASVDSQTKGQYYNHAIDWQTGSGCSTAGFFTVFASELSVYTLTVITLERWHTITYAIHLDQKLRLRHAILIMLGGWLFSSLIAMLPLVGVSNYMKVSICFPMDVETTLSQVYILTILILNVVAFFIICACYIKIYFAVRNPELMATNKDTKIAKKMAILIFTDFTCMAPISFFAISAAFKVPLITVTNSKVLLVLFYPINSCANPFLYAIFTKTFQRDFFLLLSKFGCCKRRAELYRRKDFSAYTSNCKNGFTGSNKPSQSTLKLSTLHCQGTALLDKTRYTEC

binding to LH receptors (LH receptors)	Compound	serum LH levels ([1]; central injection to vehicle-treated animals at 120 min)	inhibition of cell migration ([2]; 100 nM)	fetal weight [3]	LH secretory response to kisspeptin-10 (AUC) [1]	LH secretory response to kisspeptin-10 (AUC) ([1]; listed as peptide 234)	basal LH levels ([1]; 1 nmol icv, 15, 60, 75 and 120 min after injection)	testosterone levels vs kisspeptin-10 alone [1]	testosterone levels vs kisspeptin-10 alone ([1]; listed as peptide 234)	effect on inhibition of cell migration by 100 nM Kisspeptin ([2]; 22 hrs)
	CC(C)C[C@H](NC(=O)CNC(=O)[C@H](Cc1ccccc1)NC(=O)[C@H](CO)NC(=O)[C@H](CC(N)=O)NC(=O)[C@H](Cc1c[nH]c2ccccc12)NC(=O)[C@H](CC(N)=O)NC(=O)[C@@H](N)Cc1ccc(O)cc1)C(=O)N[C@@H](CCCNC(=N)N)C(=O)N[C@@H](Cc1ccccc1)C(N)=O [Kiss, reference compound]	evoked the expected rise	50%	decreased						
did not bind	CC(=O)N[C@H](C)C(=O)N[C@@H](CC(N)=O)C(=O)N[C@@H](Cc1c[nH]c2ccccc12)C(=O)N[C@@H](CC(N)=O)C(=O)NCC(=O)N[C@@H](Cc1ccccc1)C(=O)NCC(=O)N[C@H](Cc1c[nH]c2ccccc12)C(=O)N[C@@H](CCCNC(=N)N)C(=O)N[C@@H](Cc1ccccc1)C(N)=O [Peptide 234] (Ac-[dA]NWNGFG[dW]RF-NH2)				inhibits; also recorded: blocked	significantly blunted	did not significantly modify	blocked	lower	completely abolishes

Source: patent publication US8916681B2, “Compound, use and method” (Medical Research Council, priority 2007, dated 2014)
